Data taken from article PMC7044277 (Nature Communications, 2020).
“And” between values parts separate entries of the source, which are not always exact repeats. Equal entries are not always repeated.

Tests used:
Type in all cases: cell-based
[1] = biological target: T1, 320 non-olfactory GPCRs (Homo sapiens, UniProt P20309)
T1 construct: expressed in transfected cells; host or cells: HTLA cells

[2] = biological target: 320 non-olfactory GPCRs (Homo sapiens, UniProt P25090)
[3] = biological target: T2, 320 non-olfactory GPCRs (Homo sapiens, UniProt P25105); settings: receptor PTAFR; replicate values, Fig_4g
T2 construct: expressed in transfected cells; host or cells: HTLA cells

[4] = biological target: T3, 320 non-olfactory GPCRs (Homo sapiens, UniProt P33032); settings: receptor MC5R; replicate values, Fig_4g
T3 construct: expressed in transfected cells; host or cells: HTLA cells
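Wherever Fold of Basal is given: compound tested at 1 µM final concentration.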
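Wherever GPCRome agonism screen response is given: fold over basal response of each receptor without drug.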

T2 sequence (P25105 whole entry): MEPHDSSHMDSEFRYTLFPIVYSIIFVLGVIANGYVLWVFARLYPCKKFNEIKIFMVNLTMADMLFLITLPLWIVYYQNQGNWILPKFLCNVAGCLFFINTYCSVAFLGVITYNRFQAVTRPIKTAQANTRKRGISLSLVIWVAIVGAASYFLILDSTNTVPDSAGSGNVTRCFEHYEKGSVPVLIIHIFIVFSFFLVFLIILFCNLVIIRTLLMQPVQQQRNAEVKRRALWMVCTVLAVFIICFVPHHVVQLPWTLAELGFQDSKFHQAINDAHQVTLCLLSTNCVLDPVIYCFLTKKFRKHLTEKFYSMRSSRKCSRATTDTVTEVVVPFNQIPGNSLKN
T1 sequence (P20309 whole entry): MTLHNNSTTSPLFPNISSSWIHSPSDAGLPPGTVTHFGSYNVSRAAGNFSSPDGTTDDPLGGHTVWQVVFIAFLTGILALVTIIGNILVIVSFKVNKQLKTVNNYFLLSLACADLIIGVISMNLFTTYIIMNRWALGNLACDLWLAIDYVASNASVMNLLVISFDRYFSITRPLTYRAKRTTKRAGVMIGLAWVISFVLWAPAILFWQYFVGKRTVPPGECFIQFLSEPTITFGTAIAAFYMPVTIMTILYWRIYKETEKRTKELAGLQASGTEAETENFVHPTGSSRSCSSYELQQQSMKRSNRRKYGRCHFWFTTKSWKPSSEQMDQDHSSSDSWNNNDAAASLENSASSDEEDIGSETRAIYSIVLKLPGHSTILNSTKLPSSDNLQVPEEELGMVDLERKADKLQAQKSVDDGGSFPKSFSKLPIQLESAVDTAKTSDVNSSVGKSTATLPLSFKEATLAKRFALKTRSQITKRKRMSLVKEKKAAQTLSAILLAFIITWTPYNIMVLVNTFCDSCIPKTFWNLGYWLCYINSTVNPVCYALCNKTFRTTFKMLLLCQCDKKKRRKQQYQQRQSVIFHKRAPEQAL
Sequence of 320 non-olfactory GPCRs (Homo sapiens, UniProt P25090) (P25090 whole entry): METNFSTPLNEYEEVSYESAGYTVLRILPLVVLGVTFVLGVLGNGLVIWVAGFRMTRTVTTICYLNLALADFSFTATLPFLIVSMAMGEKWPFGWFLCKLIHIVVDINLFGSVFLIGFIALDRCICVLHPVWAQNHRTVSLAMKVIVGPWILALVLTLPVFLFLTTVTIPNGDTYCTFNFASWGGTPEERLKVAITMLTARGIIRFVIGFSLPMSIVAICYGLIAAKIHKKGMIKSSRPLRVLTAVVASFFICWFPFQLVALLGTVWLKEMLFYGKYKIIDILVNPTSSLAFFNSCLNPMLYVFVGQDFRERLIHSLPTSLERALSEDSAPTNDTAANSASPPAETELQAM
T3 sequence (P33032 whole entry): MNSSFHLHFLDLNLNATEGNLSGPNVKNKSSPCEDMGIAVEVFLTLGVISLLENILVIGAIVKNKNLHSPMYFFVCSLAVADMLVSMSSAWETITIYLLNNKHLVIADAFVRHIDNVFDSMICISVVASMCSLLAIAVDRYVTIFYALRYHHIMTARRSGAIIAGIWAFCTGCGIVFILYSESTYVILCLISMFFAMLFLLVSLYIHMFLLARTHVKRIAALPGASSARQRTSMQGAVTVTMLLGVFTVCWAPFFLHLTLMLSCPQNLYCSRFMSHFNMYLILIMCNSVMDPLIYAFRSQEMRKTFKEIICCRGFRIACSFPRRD

## CCOc1cccc2cc(C(C)NCC3(O)CCCCC3)oc12 (stereo not shown) [O4LE6]
[1]
  Fold of Basal: 0.7288 and 1.095 and 0.9519 and 0.808
[2]
  Fold of Basal: 1.561 and 1.917 and 2.561 and 1.97
[3]
  GPCRome agonism screen response: 0.04948 and 0.5552 and 0.8041
[4]
  GPCRome agonism screen response: 1.253 and 1.116 and 1.497 and 1.062
